Assay results from the supplement of paper PMC10307832.

Tests used:
Assay in all cases: relative viability (nuclei count vs DMSO), 5 days (fraction); higher = more cells survive
ABC-1 = test system: ABC-1
In short: (§1)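 Lung cancer cell lines in 1536-well plates were dosed by pin tool the day after seeding, either with one drug alone or with a fixed anchor-drug dose plus five library-drug doses (not always all listed) in √10 steps. After 5 days, cells were fixed and their nuclei stained in one step (final 0.05% Triton X-100, 1% formaldehyde, 1 ug/ml Hoechst), then counted on 4× images. Relative viability is the nuclei count in treated wells divided by that in vehicle wells. Values are medians of duplicate plates.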

EMC-BAC-2 = test system: EMC-BAC-2
In short: as §1

LCLC-97TM1 = test system: LCLC-97TM1
In short: as §1

NCI-H1355 = test system: NCI-H1355
In short: as §1

NCI-H1666 = test system: NCI-H1666
In short: as §1

NCI-H1755 = test system: NCI-H1755
In short: as §1

NCI-H1793 = test system: NCI-H1793
In short: as §1

NCI-H1944 = test system: NCI-H1944
In short: as §1

NCI-H1975 = test system: NCI-H1975
In short: as §1

NCI-H1993 = test system: NCI-H1993
In short: as §1

NCI-H2009 = test system: NCI-H2009
In short: as §1

NCI-H2126 = test system: NCI-H2126
In short: as §1

NCI-H2170 = test system: NCI-H2170
In short: as §1

NCI-H2347 = test system: NCI-H2347
In short: as §1

NCI-H441 = test system: NCI-H441
In short: as §1

NCI-H460 = test system: NCI-H460
In short: as §1

NCI-H520 = test system: NCI-H520
In short: as §1

NCI-H647 = test system: NCI-H647
In short: as §1

NCI-H727 = test system: NCI-H727
In short: as §1

PC-14 = test system: PC-14
In short: as §1

PC-3 [JPC-3] = test system: PC-3 [JPC-3]
In short: as §1

SK-LU-1 = test system: SK-LU-1
In short: as §1

SW 1573 = test system: SW 1573
In short: as §1

## O=c1[nH]c2ccccc2n1C1CCN(CCCC(c2ccc(F)cc2)c2ccc(F)cc2)CC1 [Pimozide] + Cc1nc(NC(=O)N2CCC[C@H]2C(N)=O)sc1-c1ccnc(C(C)(C)C(F)(F)F)c1 [Alpelisib] (partner 2 µM)
ABC-1; first compound 0.08 µM
  relative viability: 0.915
ABC-1; first compound 0.253 µM
  relative viability: 1.03
ABC-1; first compound 0.8 µM
  relative viability: 0.834
ABC-1; first compound 2.53 µM
  relative viability: 0.842
ABC-1; first compound 8 µM
  relative viability: 0.675
EMC-BAC-2; first compound 0.08 µM
  relative viability: 0.653
EMC-BAC-2; first compound 0.253 µM
  relative viability: 0.703
EMC-BAC-2; first compound 0.8 µM
  relative viability: 0.682
EMC-BAC-2; first compound 2.53 µM
  relative viability: 0.668
EMC-BAC-2; first compound 8 µM
  relative viability: 0.744
LCLC-97TM1; first compound 0.08 µM
  relative viability: 0.28
LCLC-97TM1; first compound 0.253 µM
  relative viability: 0.239
LCLC-97TM1; first compound 0.8 µM
  relative viability: 0.207
LCLC-97TM1; first compound 2.53 µM
  relative viability: 0.224
LCLC-97TM1; first compound 8 µM
  relative viability: 0.271
NCI-H1355; first compound 0.08 µM
  relative viability: 0.81
NCI-H1355; first compound 0.253 µM
  relative viability: 0.873
NCI-H1355; first compound 0.8 µM
  relative viability: 0.811
NCI-H1355; first compound 2.53 µM
  relative viability: 0.662
NCI-H1355; first compound 8 µM
  relative viability: 0.817
NCI-H1666; first compound 0.08 µM
  relative viability: 0.948
NCI-H1666; first compound 0.253 µM
  relative viability: 1.01
NCI-H1666; first compound 0.8 µM
  relative viability: 0.886
NCI-H1666; first compound 2.53 µM
  relative viability: 0.874
NCI-H1666; first compound 8 µM
  relative viability: 0.728
NCI-H1755; first compound 0.08 µM
  relative viability: 0.918
NCI-H1755; first compound 0.253 µM
  relative viability: 0.885
NCI-H1755; first compound 0.8 µM
  relative viability: 0.87
NCI-H1755; first compound 2.53 µM
  relative viability: 0.786
NCI-H1755; first compound 8 µM
  relative viability: 0.727
NCI-H1793; first compound 0.08 µM
  relative viability: 0.491
NCI-H1793; first compound 0.253 µM
  relative viability: 0.567
NCI-H1793; first compound 0.8 µM
  relative viability: 0.988
NCI-H1793; first compound 2.53 µM
  relative viability: 0.665
NCI-H1793; first compound 8 µM
  relative viability: 0.87
NCI-H1944; first compound 0.08 µM
  relative viability: 0.654
NCI-H1944; first compound 0.253 µM
  relative viability: 0.817
NCI-H1944; first compound 0.8 µM
  relative viability: 0.815
NCI-H1944; first compound 2.53 µM
  relative viability: 0.824
NCI-H1944; first compound 8 µM
  relative viability: 0.81
NCI-H1975; first compound 0.08 µM
  relative viability: 0.64
NCI-H1975; first compound 0.253 µM
  relative viability: 0.715
NCI-H1975; first compound 0.8 µM
  relative viability: 0.606
NCI-H1975; first compound 2.53 µM
  relative viability: 0.602
NCI-H1975; first compound 8 µM
  relative viability: 0.535
NCI-H1993; first compound 0.08 µM
  relative viability: 0.707
NCI-H1993; first compound 0.253 µM
  relative viability: 0.648
NCI-H1993; first compound 0.8 µM
  relative viability: 0.716
NCI-H1993; first compound 2.53 µM
  relative viability: 0.734
NCI-H1993; first compound 8 µM
  relative viability: 0.669
NCI-H2009; first compound 0.08 µM
  relative viability: 1.16
NCI-H2009; first compound 0.253 µM
  relative viability: 1.15
NCI-H2009; first compound 0.8 µM
  relative viability: 1.14
NCI-H2009; first compound 2.53 µM
  relative viability: 1.23
NCI-H2009; first compound 8 µM
  relative viability: 1.05
NCI-H2126; first compound 0.08 µM
  relative viability: 0.756
NCI-H2126; first compound 0.253 µM
  relative viability: 0.734
NCI-H2126; first compound 0.8 µM
  relative viability: 0.729
NCI-H2126; first compound 2.53 µM
  relative viability: 0.758
NCI-H2126; first compound 8 µM
  relative viability: 0.757
NCI-H2170; first compound 0.08 µM
  relative viability: 0.753
NCI-H2170; first compound 0.253 µM
  relative viability: 0.792
NCI-H2170; first compound 0.8 µM
  relative viability: 0.822
NCI-H2170; first compound 2.53 µM
  relative viability: 0.74
NCI-H2170; first compound 8 µM
  relative viability: 0.714
NCI-H2347; first compound 0.08 µM
  relative viability: 1.11
NCI-H2347; first compound 0.253 µM
  relative viability: 0.966
NCI-H2347; first compound 0.8 µM
  relative viability: 0.914
NCI-H2347; first compound 2.53 µM
  relative viability: 1.01
NCI-H2347; first compound 8 µM
  relative viability: 0.966
NCI-H441; first compound 0.08 µM
  relative viability: 1.05
NCI-H441; first compound 0.253 µM
  relative viability: 0.733
NCI-H441; first compound 0.8 µM
  relative viability: 0.854
NCI-H441; first compound 2.53 µM
  relative viability: 0.574
NCI-H441; first compound 8 µM
  relative viability: 0.442
NCI-H460; first compound 0.08 µM
  relative viability: 0.476
NCI-H460; first compound 0.253 µM
  relative viability: 0.428
NCI-H460; first compound 0.8 µM
  relative viability: 0.472
NCI-H460; first compound 2.53 µM
  relative viability: 0.487
NCI-H460; first compound 8 µM
  relative viability: 0.493
NCI-H520; first compound 0.08 µM
  relative viability: 1.03
NCI-H520; first compound 0.253 µM
  relative viability: 0.88
NCI-H520; first compound 0.8 µM
  relative viability: 0.992
NCI-H520; first compound 2.53 µM
  relative viability: 0.947
NCI-H520; first compound 8 µM
  relative viability: 0.832
NCI-H647; first compound 0.08 µM
  relative viability: 1.11
NCI-H647; first compound 0.253 µM
  relative viability: 1.31
NCI-H647; first compound 0.8 µM
  relative viability: 1.11
NCI-H647; first compound 2.53 µM
  relative viability: 1
NCI-H647; first compound 8 µM
  relative viability: 0.554
NCI-H727; first compound 0.08 µM
  relative viability: 0.569
NCI-H727; first compound 0.253 µM
  relative viability: 0.582
NCI-H727; first compound 0.8 µM
  relative viability: 0.729
NCI-H727; first compound 2.53 µM
  relative viability: 0.547
NCI-H727; first compound 8 µM
  relative viability: 0.519
PC-14; first compound 0.08 µM
  relative viability: 0.606
PC-14; first compound 0.253 µM
  relative viability: 0.911
PC-14; first compound 0.8 µM
  relative viability: 0.928
PC-14; first compound 2.53 µM
  relative viability: 1.05
PC-14; first compound 8 µM
  relative viability: 0.955
PC-3 [JPC-3]; first compound 0.253 µM
  relative viability: 0.964
PC-3 [JPC-3]; first compound 0.8 µM
  relative viability: 0.978
PC-3 [JPC-3]; first compound 2.53 µM
  relative viability: 0.961
PC-3 [JPC-3]; first compound 8 µM
  relative viability: 0.96
SK-LU-1; first compound 0.08 µM
  relative viability: 0.961
SK-LU-1; first compound 0.253 µM
  relative viability: 0.986
SK-LU-1; first compound 0.8 µM
  relative viability: 0.926
SK-LU-1; first compound 2.53 µM
  relative viability: 0.719
SK-LU-1; first compound 8 µM
  relative viability: 0.649
SW 1573; first compound 0.08 µM
  relative viability: 0.795
SW 1573; first compound 0.253 µM
  relative viability: 0.788
SW 1573; first compound 0.8 µM
  relative viability: 0.764
SW 1573; first compound 2.53 µM
  relative viability: 0.91
SW 1573; first compound 8 µM
  relative viability: 0.743
